The source of these data is patent publication US7179800B2 (priority 2002, dated 2007).

Assay [1] addresses T1, CB2 receptor (Homo sapiens, UniProt P34972).
T1 construct: expressed in transfected cells; host or cells: CHO cells, G418-selected transfected line
Nature of the assay: CB2 binding procedure: displacement of [3H]CP-55,940 from membranes of transfected CHO cells. Conditions: for Ki: means ± SEM, [3H]CP-55,940, transfected CHO cell membranes, read-out: Ki (nM) CB2; for CB1/CB2 (ratio of Ki): CB1 Ki divided by CB2 Ki. On the procedure: Membranes for CB2 binding were obtained from CHO cells. The transfected cell line was maintained in Dublecco's Modified Eagle Medium (Gibco BRL, Grand Island, N.Y.) with 10% fetal clone II (HyClone Laboratories, Inc., Logan, Utah) plus 0.3 to 0.5 mg/ml G418 (to maintain selective pressure) under 5% CO2 at 37% C. Cells were harvested with 1 mM EDTA in phosphate-buffered saline and were centrifuged at 1000×g for 5 min at 4% C. The supernatant was saved and the P1 pellet was resuspended in centrifugation buffer. Homogenization and centrifugation were repeated twice and the combined supernatant fractions were centrifuged at 40,000×g for 30 min at 4% C. The P2 pellet was resuspended in centrifugation buffer 2 (Tris HCl, 50 mM; EDTA, 1 mM; and MgCl2, 3 mM, pH 7.4) to a protein concentration of approximately 2 mg/ml. Protein concentrations were determined by the method of Bradford (1976) using Bio-Rad Protein Assay (Bio-Rad, Richmond, Calif.) and BSA standards (fatty acid free, Sigma Chemical Co., St. Louis, Mo.). The membrane preparation was divided into amounts convenient for binding assays and frozen rapidly in dry ice and stored at −80% C.
Binding was initiated by the addition of 50 μg of quickly thawed P2 membranes to test tubes containing [^3H]CP-55,940 (final reaction concentration 0.5 nM), an appropriate concentration of unlabeled CP-55,940 or test drug, and sufficient quantity of assay buffer (50 mM Tris-HCl, 1 mM EDTA, 3 mM MgCl2, 5 mg/ml bovine serum albumin, pH 7.4) to bring the total incubation volume to 0.5 ml. Concentration of [^3H]CP-55,940 in saturation studies ranged from 50 to 10,000 pM. Nonspecific binding was determined by the addition of 1 μM unlabeled CP-55,940. CP-55,940 and all cannabinoid analogs were prepared by suspension in assay buffer from a 1 mg/ml ethanolic stock without evaporation of the ethanol (final concentration of no more than 0.4%). In competition studies, analog concentrations ranged from 0.1 nM to 10 μM. After incubation at 30% C for 1 hr, binding was terminated by the addition of 2 ml of ice-cold wash buffer (50 mM Tris-HCl and 1 mg/ml BSA) and vacuum filtration through pre-treated filters in a 12-well sampling manifold (Millipore, Bedford, Mass.). Reaction vessels were washed once with 2 ml of ice-cold wash buffer. Filters were placed into 7-ml plastic scintillation vials (RPI Corp., Mount Prospect, Ill.) with 4 ml of Budget-Solve (RPI Corp.). After shaking for 30 min, the radioactivity present was determined by liquid scintillation spectrometry. Three reaction vessels were used for each drug concentration in each assay. The results represent the combined data of three independent experiments. All assays were performed in siliconized test tubes, which were prepared by air drying (12 hr) inverted borosilicate tubes after two rinses with a 0.1% solution of AquaSil (Pierce, Rockford, Ill.). The GF/C glass-fiber filters (2.4 cm, Baxter, McGaw Park, Ill.) were pre-treated in a 0.1% solution of pH 7.4 polyethylenimine (Sigma Chemical Co.) for at least 6 hr.
(§1) In addition, multiple linear regression was used to calculate the overall degree of relationship between CB1 binding affinity and potency in the mouse measures for all active cannabinoids. […] Ki values for CB1 and CB2 binding were obtained from Scatchard displacement analysis as determined via EBDA program of the KELL software package (Biosoft, Milltown, N.J.).
On the technique in general: Loss of bound radioactivity is the signal in a displacement assay; it reports binding, not function.

The subject of assay [2] is Male ICR mice. The assay is described as follows: Change in rectal temperature (RT) in mice. Type of assay: in vivo, mouse. Conditions: for R.T. effect at dose: @ 30 (mg/kg); for ED50: Mus musculus, iv. On the procedure: (§2) Male ICR mice (25–32 g), obtained from Harlan (Dublin, Va.), were housed in groups of five. All animals were kept in a temperature-controlled (20–22° C.) environment with a 12-hour light-dark cycle (lights on at 7 a.m.). Separate mice were used for testing each drug dose in the in vivo behavioral procedures. Brain tissue for binding studies was obtained from male Sprague-Dawley rats (150–200 g) purchased from Harlan Laboratories (Dublin, Va.).
(§3) Measurement of spontaneous activity in mice occurred in standard activity chambers interfaced with a Digiscan Animal Activity Monitor (Omnitech Electronics, Inc., Columbus, Ohio). A standard tail-flick apparatus and a digital thermometer (Fisher Scientific, Pittsburgh, Pa.) were used to measure antinociception and rectal temperature, respectively
(§4) Resorcinols were synthesized in our labs (Organix, Inc., Woburn, Mass.) according to the procedure specified below and were suspended in a vehicle of absolute ethanol, Emulphor-620 (Rhone-Poulenc, Inc., Princeton, N.J.), and saline in a ratio of 1:1:18. Drugs were administered to the mice intravenously (i.v.) in the tail vein at a volume of 0.1 ml/10 g.
(§5) Prior to testing in the behavioral procedures, mice were acclimated to the experimental setting (ambient temperature 22–24° C.) overnight. Pre-injection control values were determined for rectal temperature and tail-flick latency (in sec). […] Tail-flick latency was measured at 20 min post-injection. Maximum latency of 10 sec was used. Antinociception was calculated as percent of maximum possible effect {% MPE=[(test−control latency)/(10-control)]×100}. Control latencies typically ranged from 1.5 to 4.0 sec. At 30 min post-injection, rectal temperature was measured This value was expressed as the difference between control temperature (before injection) and temperatures following drug administration (° C.). Different mice (n=5–6 per dose) were tested for each dose of each compound. Each mouse was tested in each of the 3 procedures.
(§6) Based on data obtained from numerous previous studies with cannabinoids, maximal cannabinoid effects in each procedure were estimated as follows: 90% inhibition of spontaneous activity, 100% MPE in the tail flick procedure, and −6° C. change in rectal temperature. ED50's were defined as the dose at which half maximal effect occurred. For drugs that produced one or more cannabinoid effect, ED50's were calculated separately using least-squares linear regression on the linear part of the dose-effect curve for each measure in the mouse tetrad, plotted against log10 transformation of the dose. For the purposes of potency comparison, potencies were expressed as μmol/kg.

The target in assay [3] is CB1 receptor (Rattus norvegicus, UniProt P20272). Nature of the assay: CB1 binding procedure: displacement of [3H]CP 55,940 from rat whole-brain P2 membranes. Also on record: whole brain was homogenized and centrifuged; from tissue; host or cells: rat whole brain, P2 membrane fraction. Conditions: means ± SEM; [3H]CP 55,940, rat brain membranes; read-out: Ki (nM) CB1. On the procedure: as §2
CB1 receptor, sequence (P20272 whole entry): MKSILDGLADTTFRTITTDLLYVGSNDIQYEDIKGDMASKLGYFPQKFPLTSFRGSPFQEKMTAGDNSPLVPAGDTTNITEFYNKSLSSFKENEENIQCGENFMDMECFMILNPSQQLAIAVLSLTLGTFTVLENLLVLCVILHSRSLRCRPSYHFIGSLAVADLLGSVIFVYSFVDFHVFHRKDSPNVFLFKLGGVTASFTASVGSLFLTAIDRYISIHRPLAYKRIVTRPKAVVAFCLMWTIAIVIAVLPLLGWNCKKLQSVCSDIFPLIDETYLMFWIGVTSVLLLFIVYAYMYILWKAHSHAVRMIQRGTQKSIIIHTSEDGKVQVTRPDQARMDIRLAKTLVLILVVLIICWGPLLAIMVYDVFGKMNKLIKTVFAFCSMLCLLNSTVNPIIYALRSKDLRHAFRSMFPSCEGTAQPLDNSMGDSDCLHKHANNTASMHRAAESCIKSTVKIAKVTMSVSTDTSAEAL
The methods used for tissue preparation and binding have been described previously (Compton et al., 1993) and are similar to those described by Devane et al. (1988). All assays, as described briefly below, were performed in triplicate, and the results represent the combined data from three to six individual experiments.
Following decapitation and rapid removal of the brain, whole brain was homogenized and centrifuged. The resulting pellet was termed P1. The supernatant was saved and combined with the two subsequent supernatants obtained from washing of the P1 pellet. The combined supernatant fractions were centrifuged, resulting in the P2 pellet. After further incubation and centrifuging, this pellet was resuspended in assay buffer to a protein concentration of approximately 2 mg/ml. The membrane preparation was quickly frozen in a bath solution of dry ice and 2-methylbutane (Sigma Chemical Co., St. Louis, Mo.), then stored at −80° C. for no more than 2 weeks. Prior to performing a binding assay an aliquot of frozen membrane was rapidly thawed and protein values determined by the method of Bradford (1976).
Binding was initiated by the addition of 150 μg of P2 membrane to test tubes containing 1 nM of [^3H] CP 55,940 (79 Ci/mmol) and a sufficient quantity of buffer to bring the total incubation volume to 1 ml. Nonspecific binding was determined by the addition of 1 μM unlabeled CP 55,940. Following incubation at 30° C. for 1 hr, binding was terminated by addition of ice cold buffer and vacuum filtration through pretreated filters in a 12-well sampling manifold (Millipore, Bedford, Mass.). After washing, filters were placed into plastic scintillation vials (Packard, Downer Grove, Ill.) and shaken. The quantity of radioactivity present was determined by liquid scintillation spectrometry.
as §1

Assay [4] deals with Male ICR mice. The assay is described as follows: Suppression of spontaneous activity (SA) in mice. Type of assay: in vivo, mouse. Conditions: for S.A % effect at dose: @ 30 (mg/kg); for ED50: Mus musculus, iv. On the procedure:
as §2, §3, §4, §5, §6

Assay [5] relates to Male ICR mice. The assay is described as follows: Tail-flick antinociception (TF, % MPE) in mice. Type of assay: in vivo, mouse. Conditions: for T.F. % effect at dose: @ 30 (mg/kg); for ED50: Mus musculus, iv. On the procedure:
as §2, §3, §4, §5, §6

Where [6] appears, read: Table 6, mice, i.v., read-out: R.T. ED50.
Where [7] appears, read: mice, i.v., 95% confidence limits in parentheses, read-out: ED50 RT (rectal temperature).
[8] abbreviates: mice, i.v., 95% confidence limits in parentheses, read-out: ED50 SA (suppression of spontaneous activity).
The mark [9] stands for this setting: Table 6, mice, i.v., read-out: T.F. ED50.
Where [10] appears, read: mice, i.v., 95% confidence limits in parentheses, read-out: ED50 TF (antinociceptive effect in tail flick assay).
Where [11] appears, read: mice, i.v., 95% confidence limits in parentheses.

T1 sequence (P34972 whole entry): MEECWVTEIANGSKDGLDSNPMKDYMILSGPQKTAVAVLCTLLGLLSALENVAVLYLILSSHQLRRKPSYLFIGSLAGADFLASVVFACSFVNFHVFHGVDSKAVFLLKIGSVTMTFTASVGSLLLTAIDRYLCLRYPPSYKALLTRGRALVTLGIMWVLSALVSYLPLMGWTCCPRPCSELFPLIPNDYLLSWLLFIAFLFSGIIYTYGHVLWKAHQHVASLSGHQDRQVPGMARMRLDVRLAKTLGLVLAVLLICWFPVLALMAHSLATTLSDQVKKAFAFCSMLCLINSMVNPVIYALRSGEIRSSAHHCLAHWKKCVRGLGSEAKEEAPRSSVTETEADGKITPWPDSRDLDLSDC

With `CCCCCCC(C)(C)c1cc(OC)c(C2CCCC(C)C2)c(OC)c1` (centres unmarked) [O-1999], the Ki (as a rule, a measure of affinity in units of concentration, obtained from inhibition or displacement) in assay [1] is 466 ± 110 nM; in assay [3], greater than 10000 nM. In addition, in assay [1] (relative to the comparator analog), the “fold decrease in CB2 affinity” value is roughly 600 fold. For the same molecule, the “R.T. effect at dose” value in assay [2] (Table 6) is 1 @ 30 °C. In assay [4] (Table 6), the “S.A % effect at dose” value is on record as 4 @ 30%. Besides, the “T.F. % effect at dose” value in assay [5] (Table 6) is given as 6 @ 30%.

On to `CCCCCCC(C)(C)c1cc(O)c(C2CCCC2)c(O)c1` [O-1424, 2-(Cyclopentyl)-dimethylheptyl-resorcinol], for which the figures for the Ki in assay [1] and in assay [3] were 7 ± 0.4 nM and 95 ± 6 nM, respectively. Also, the ED50 (in general, the midpoint of the dose-response relation) is 4.24 mg/kg in assay [2] (setting [6]); 13 µmol/kg in assay [2] (setting [7]); 8.29 mg/kg in assay [4] (Table 6, mice, i.v., read-out: S.A ED50); 27 µmol/kg in assay [4] (setting [8]); 4.48 mg/kg in assay [5] (setting [9]); 13 µmol/kg in assay [5] (setting [10]).

For the molecule `CCCCCCC(C)(C)c1cc(O)c(C2CCCC(C)C2)c(O)c1` (single isomer, unassigned) [O-1798B, 2-(3-Methylcyclohexyl)-5-(1′,1′-dimethylheptyl)-resorcinolisomer B], the “CB1/CB2 (ratio of Ki)” value in assay [1] is given as 8. Moreover, the Ki in assay [1] was 0.5 ± 0.07 nM; in assay [3], 4 ± 0.6 nM. The “R.T. ED50” value in assay [2] (Table 6, mice, i.v.) is 0.218 mg/kg. Also, the “ED50 RT (rectal temperature)” value in assay [2] (setting [11]) is reported as 0.6(0.5–0.7) μmol/kg. Also, the “S.A ED50” value in assay [4] (Table 6, mice, i.v.) turned out to be 0.070 mg/kg. The “ED50 SA (suppression of spontaneous activity)” value in assay [4] (setting [11]) is 0.2(0.03–1.2) μmol/kg. Also, in assay [5] (Table 6, mice, i.v.), the “T.F. ED50” value stood at 0.379 mg/kg. In assay [5] (setting [11]), the “ED50 TF (antinociceptive effect in tail flick assay)” value is 1.0(0.7–1.6) μmol/kg.

Consider `CCCCCCC(C)(C)c1ccc(-c2cc(CO)ccc2C(C)C)c(O)c1` [O-1601, 3-1′,1′-Dimethylheptyl-6-(2-isopropyl-5-hydroxy-methylphenyl)-phenol], for which the “CB1/CB2 (ratio of Ki)” value in assay [1] was determined as 2. In addition, the inhibition constant Ki in assay [1] amounted to 3 ± 0.4 nM; in assay [3], 5 ± 0.6 nM. Also, the ED50 is 1.6 µmol/kg in assay [2] (setting [7]), 1.1 µmol/kg in assay [4] (setting [8]) and 1.1 µmol/kg in assay [5] (setting [10]).

In the case of `CCCCCCC(C)(C)c1cc(OC)c(C2(O)CCCC(C)C2)c(OC)c1` (single isomer, unassigned; isomer 2) [O-1967B, 1-(4-(1,1-Dimethylheptyl-2,6-dimethoxy-phenyl)-3-methyl-cyclohexaol isomer 2], in assay [1], the “CB1/CB2 (ratio of Ki)” value is recorded as 15 and the Ki was 111 ± 8 nM. Also, the “R.T. effect at dose” value in assay [2] (Table 6) was 0 @ 30 °C. Moreover, in assay [3], the Ki was 1720 ± 105 nM. For the same molecule, in assay [4] (Table 6), the “S.A % effect at dose” value is listed as 42.9 @ 30%. Moreover, in assay [5] (Table 6), the “T.F. % effect at dose” value was 8.2% @ 30.

As to `CCCCCCC(C)(C)c1cc(O)c(C2CCCC(C)C2)c(O)c1` (single isomer, unassigned) [O-1797A], the “CB1/CB2 (ratio of Ki)” value in assay [1] is given as 12. Further, the Ki in assay [1] came to 0.4 ± 0.03 nM; in assay [3] it was 5 ± 0.6 nM. In addition, the ED50 in assay [2] (setting [6]) is 0.252 mg/kg; in assay [2] (setting [7]), 0.7 µmol/kg; in assay [5] (setting [9]), 0.362 mg/kg; in assay [5] (setting [10]), 1.1 µmol/kg. In assay [4] (Table 6, mice, i.v., listed as O-1297), the “S.A ED50” value is given as 0.154 mg/kg. The “ED50 SA (suppression of spontaneous activity)” value in assay [4] (setting [11]) is reported as 0.5(0.4–0.6) μmol/kg.

As to `CCCC(C)(C)c1ccc(-c2cc(C)ccc2C(C)C)c(O)c1` [O-1532], in assay [1], the “CB1/CB2 (ratio of Ki)” value is on record as 8 and the Ki is 113 ± 21 nM. The “RT effect at the highest dose (change in rectal temperature)” value in assay [2] (mice, i.v., 30 mg/kg) was −0.4 °C. Also, the Ki in assay [3] came to 876 ± 18 nM. In assay [4] (mice, i.v., 30 mg/kg, % inhibition of activity of vehicle group), the “SA percent effect at the highest dose” value was found to be 32%. Further, in assay [5] (mice, i.v., 30 mg/kg), the “TF percent effect (% MPE) at the highest dose” value is 7%.
